In patent publication US5294617A, “Angiotensin II receptor blocking 2,3,6 substituted quinazolinones” (American Cyanamid Company, priority 1993, dated 1994):
“And” between values parts separate entries of the source, which are not always exact repeats. Equal values may be shown once.

Test system: ANGIOTENSIN II (AII) VASOPRESSOR RESPONSE
Test: AII Challenge: angiotensin II vasopressor response in conscious spontaneously hypertensive rats
Type: in vivo, Conscious Male Okamoto-Aoki SHR (rat)
Settings: individual rat, SHR
From the text: By administering a compound of this invention to a rat, and then challenging with angiotensin II, a blockage of the vasopressor response is realized.
Conscious Male Okamoto-Aoki SHR, 16-20 weeks old, weighing approximately 330 g are purchased from Charles River Labs (Wilmington, Mass.). Conscious rats are restrained in a supine position with elastic tape. The area at the base of the tail is locally anesthetized by subcutaneous infiltration with 2% procaine. The ventral caudal artery and vein are isolated, and a cannula made of polyethylene (PE) 10-20 tubing (fused together by heat) is passed into the lower abdominal aorta and vena cava, respectively. The cannula is secured, heparinized (1,000 I.U./ml), sealed and the wound is closed. The animals are placed in plastic restraining cages in an upright position. The cannula is attached to a Statham P23Db pressure transducer, and pulsatile blood pressure is recorded to 10-15 minutes with a Gould Brush recorder. (Chan et al., (Drug Development Res., 18:75-94, 1989).
Angiotensin II (human sequence, Sigma Chem. Co., St. Louis, Mo.) of 0.05 and 0.1 ug/kg i.v. is injected into all rats (predosing response). Then a test compound, vehicle or a known angiotensin II antagonist is administered i.v., i.p. or orally to each set of rats. The two doses of angiotensin II are given to each rat again at 30, 60, 90, 120, 180, 240 and 300 minutes post dosing the compound or vehicle. The vasopressor response of angiotensin II is measured for the increase in systolic blood pressure in mmHg. The percentage of antagonism or blockade of the vasopressor response of angiotensin II by a compound is calculated using the vasopressor response (increase in systolic blood pressure) of angiotensin II of each rat predosing the compound as 100%. A compound is considered active if at 30 mg/kg i.v. it antagonized at least 50% of the response.

[1] = 2 mg/kg i.v., AII 0.1 mcg/kg IV, 90 min post dose, 2 mg/kg
[2] = 2 mg/kg i.v., AII 0.1 mcg/kg IV, 120 min post dose, 2 mg/kg
[3] = 2 mg/kg i.v., AII 0.1 mcg/kg IV, 180 min post dose, 2 mg/kg
[4] = 10 mg/kg i.v., AII 0.05 mcg/kg IV, 30 min post dose, 10 mg/kg
[5] = 10 mg/kg i.v., AII 0.05 mcg/kg IV, 60 min post dose, 10 mg/kg
[6] = 10 mg/kg i.v., AII 0.05 mcg/kg IV, 120 min post dose, 10 mg/kg
[7] = 10 mg/kg i.v., AII 0.05 mcg/kg IV, 180 min post dose, 10 mg/kg
[8] = 10 mg/kg i.v., AII 0.05 mcg/kg IV, 240 min post dose, 10 mg/kg
[9] = 10 mg/kg i.v., AII 0.05 mcg/kg IV, 300 min post dose, 10 mg/kg
[10] = 10 mg/kg i.v., AII 0.1 mcg/kg IV, 30 min post dose
[11] = 10 mg/kg i.v., AII 0.1 mcg/kg IV, 60 min post dose, 10 mg/kg
[12] = 10 mg/kg i.v., AII 0.1 mcg/kg IV, 90 min post dose, 10 mg/kg
[13] = 10 mg/kg i.v., AII 0.1 mcg/kg IV, 120 min post dose, 10 mg/kg
[14] = 10 mg/kg i.v., AII 0.1 mcg/kg IV, 180 min post dose, 10 mg/kg
[15] = 10 mg/kg i.v., AII 0.1 mcg/kg IV, 240 min post dose, 10 mg/kg
[16] = 10 mg/kg i.v., AII 0.1 mcg/kg IV, 300 min post dose, 10 mg/kg

CCCCc1nc2ccc([C@@H]3C[C@H](CO)ON3C)cc2c(=O)n1Cc1ccc(-c2ccccc2-c2nn[nH]n2)cc1 (relative stereo) [Example 15, CIS-2-butyl-6-5-(hydroxymethyl)-2-methyl-3-isoxazolidinyl]-3-[[2'-(1H-tetrazol-5[1,1'-biphenyl]-4-yl]methyl]-4(3H)-quinazolinone]
Response After AII [1]: 245 mmHg and 240 mmHg
Response Change [1]: 30 mmHg and 20 mmHg
Response After AII [2]: 227 mmHg and 235 mmHg
Response Change [2]: 17 mmHg and 20 mmHg
Response After AII [3]: 220 mmHg and 255 mmHg
Response Change [3]: 10 mmHg and 35 mmHg
Control Before AII (2 mg/kg i.v., before AII 0.05 mcg/kg IV, 30 min post dose, 2 mg/kg): 215 mmHg and 225 mmHg
Control Before AII (2 mg/kg i.v., before AII 0.05 mcg/kg IV, 60 min post dose): 220 mmHg
Control Before AII (2 mg/kg i.v., before AII 0.05 mcg/kg IV, 90 min post dose, 2 mg/kg): 210 mmHg and 225 mmHg
Control Before AII (2 mg/kg i.v., before AII 0.05 mcg/kg IV, 120 min post dose, 2 mg/kg): 205 mmHg and 215 mmHg
Control Before AII (2 mg/kg i.v., before AII 0.05 mcg/kg IV, 180 min post dose, 2 mg/kg): 203 mmHg and 215 mmHg
Control Before AII (2 mg/kg i.v., before AII 0.1 mcg/kg IV, 30 min post dose, 2 mg/kg): 220 mmHg and 215 mmHg
Control Before AII (2 mg/kg i.v., before AII 0.1 mcg/kg IV, 60 min post dose, 2 mg/kg): 220 mmHg and 217 mmHg
Control Before AII (2 mg/kg i.v., before AII 0.1 mcg/kg IV, 90 min post dose, 2 mg/kg): 215 mmHg and 220 mmHg
Control Before AII (2 mg/kg i.v., before AII 0.1 mcg/kg IV, 120 min post dose, 2 mg/kg): 210 mmHg and 215 mmHg
Control Before AII (2 mg/kg i.v., before AII 0.1 mcg/kg IV, 180 min post dose, 2 mg/kg): 210 mmHg and 220 mmHg
Response After AII [4]: 180 mmHg and 190 mmHg
Response Change [4]: 5 mmHg and 15 mmHg
Response After AII (10 mg/kg i.v., AII 0.05 mcg/kg IV, 60 min post dose): 190 mmHg
Response After AII [5]: 165 mmHg
Response Change [5]: 0 mmHg and 1 mmHg
Response Change (10 mg/kg i.v., AII 0.05 mcg/kg IV, 90 min post dose): 5 mmHg
Response After AII (10 mg/kg i.v., AII 0.05 mcg/kg IV, 90 min post dose, 10 mg/kg): 180 mmHg and 170 mmHg
Response After AII [6]: 195 mmHg and 175 mmHg
Response Change [6]: 15 mmHg and 10 mmHg
Response After AII [7]: 195 mmHg and 165 mmHg
Response Change [7]: 30 mmHg and 10 mmHg
Response After AII (10 mg/kg i.v., AII 0.05 mcg/kg IV, 240 min post dose): 160 mmHg
Response After AII [8]: 195 mmHg
Response Change [8]: 25 mmHg and 5 mmHg
Response After AII (10 mg/kg i.v., AII 0.05 mcg/kg IV, 300 min post dose): 170 mmHg
Response After AII [9]: 185 mmHg
Response Change [9]: 17 mmHg and 10 mmHg
Response After AII [10]: 170 mmHg
Response Change [10]: 0 mmHg
Response After AII (10 mg/kg i.v., AII 0.1 mcg/kg IV, 30 min post dose, 10 mg/kg): 185 mmHg
Response After AII [11]: 193 mmHg and 170 mmHg
Response Change [11]: 8 mmHg and 10 mmHg
Response After AII [12]: 195 mmHg and 175 mmHg
Response Change [12]: 10 mmHg and 15 mmHg
Response After AII (10 mg/kg i.v., AII 0.1 mcg/kg IV, 120 min post dose): 190 mmHg
Response After AII [13]: 175 mmHg
Response Change [13]: 15 mmHg and 10 mmHg
Response After AII [14]: 205 mmHg and 165 mmHg
Response Change [14]: 35 mmHg and 8 mmHg
Response After AII [15]: 205 mmHg and 165 mmHg
Response Change [15]: 35 mmHg and 8 mmHg
Response After AII [16]: 190 mmHg and 200 mmHg
Response Change [16]: 25 mmHg and 40 mmHg
Control Before AII (10 mg/kg i.v., before AII 0.05 mcg/kg IV, 30 min post dose): 175 mmHg
Control Before AII (10 mg/kg i.v., before AII 0.05 mcg/kg IV, 60 min post dose, 10 mg/kg): 190 mmHg and 164 mmHg
Control Before AII (10 mg/kg i.v., before AII 0.05 mcg/kg IV, 90 min post dose, 10 mg/kg): 175 mmHg and 165 mmHg
Control Before AII (10 mg/kg i.v., before AII 0.05 mcg/kg IV, 120 min post dose, 10 mg/kg): 180 mmHg and 165 mmHg
Control Before AII (10 mg/kg i.v., before AII 0.05 mcg/kg IV, 180 min post dose, 10 mg/kg): 165 mmHg and 155 mmHg
Control Before AII (10 mg/kg i.v., before AII 0.05 mcg/kg IV, 240 min post dose, 10 mg/kg): 170 mmHg and 155 mmHg
Control Before AII (10 mg/kg i.v., before AII 0.05 mcg/kg IV, 300 min post dose, 10 mg/kg): 168 mmHg and 160 mmHg
Control Before AII (10 mg/kg i.v., before AII 0.1 mcg/kg IV, 30 min post dose, 10 mg/kg): 185 mmHg and 170 mmHg
Control Before AII (10 mg/kg i.v., before AII 0.1 mcg/kg IV, 60 min post dose, 10 mg/kg): 185 mmHg and 160 mmHg
Control Before AII (10 mg/kg i.v., before AII 0.1 mcg/kg IV, 90 min post dose, 10 mg/kg): 185 mmHg and 160 mmHg
Control Before AII (10 mg/kg i.v., before AII 0.1 mcg/kg IV, 120 min post dose, 10 mg/kg): 175 mmHg and 165 mmHg
Control Before AII (10 mg/kg i.v., before AII 0.1 mcg/kg IV, 180 min post dose, 10 mg/kg): 170 mmHg and 157 mmHg
Control Before AII (10 mg/kg i.v., before AII 0.1 mcg/kg IV, 240 min post dose, 10 mg/kg): 170 mmHg and 157 mmHg
Control Before AII (10 mg/kg i.v., before AII 0.1 mcg/kg IV, 300 min post dose, 10 mg/kg): 165 mmHg and 160 mmHg
